The source of these data is US20030220232A1, “Peptide and nucleic acid coding therefor for the detection, diagnosis and therapy of diseases of the nervous system” (priority 2000, published 2003).

For experiment [1], the system named is sodium ion channels. In words: Neuroinhibitory assay: inhibition of sodium currents, whole cell mode, differentiated NH15-CA2 neuroblastoma-x-glioma cells. Type of experiment: cell-based. Conditions: for concentration of solution with corresponding electrophysiological action on neuronal sodium channels: 10 μM peptide solution corresponds to 50 μM lidocaine solution. The source says:
“Neuroinhibitory activity” here means the capacity of a substance for blocking sodium ion channels. Neuroinhibitory activity can be measured in this connection by the inhibition of sodium ion currents through potential-dependent sodium ion channels. (Review article by Lehmann-Horn et al. in Rev. Physiol. Biochem. Pharmacol. 128; (1996), 198-268). The experimental conditions for measurement of the neuroinhibitory activity are described, for example, in Brinkmeier et al., Muscle and Nerve 19 (1996), 54-62. Neuroinhibitory activity can be determined using differentiated NH15-CA2 [neuroblastoma×glioma] cells (Hamprecht et al., Meth. Enzymol. 109 (1985), 316-41; Brinkmeier et al., Muscle Nerve 19 (1996), 54-62).
The neuroinhibitory activity was determined by the inhibition of sodium ion channels using differentiated NH15-CA2 neuroblastoma-x-glioma cells. The culture conditions and morphological and physiological parameters of the differentiation of these cells are known (Hamprecht et al., Meth. Enzymol. 109 (1985), 316-41). For the assay, the cells were transferred into a hydrophobic test dish which was filled with standard external liquid (140 mM NaCl; 3.5 mM KCl; 1.0 mM CaCl2; 1.0 mM MgCl2; 2 mM HEPES, pH 7.4). The dish was on the platen of an inverted microscope for observation of the cells, while these were treated with pipettes which were filled with internal solution (140 mM CsCl; 1.4 mM MgCl2; 10 mM EGTA and 10 mM HEPES (peak resistances: […])). The sodium currents were induced and recorded in the whole cell mode. The determination of the maximum current amplitudes as a response to repetitive rectangular pulses from −85 to −20 mV lasting 8 ms before, during and after administration of the test solution can be used as a rapid test for the neuroinhibitory activity. The decrease in the current was recorded in three to five cells and the means were determined. An extended test consisted of determination of the “steady-state” activation and inactivation parameters of sodium ion channels. To determine the dependence of the activation on potential, a cyclic pulse program was used, which comprised pre-pulses which depolarized the cells from an HP (holding potential) of −85 mV to −135 mV over 100 ms, and subsequent variable test pulses which depolarized for 8 ms in 4 mV steps from −65 to +31 mV. For the dependence of the inactivation on potential, a similar program was used, which comprised a fixed 100 ms conditioning pulse at −135 mV, a variable 32 ms prepulse in the course of −135 to −19 mV in 4 mV steps and a constant test pulse which depolarized the cells to −20 mV. The size of the left shift of the h curve in the presence of test solutions was used as a measured of the inhibition of the sodium ion channels.
The neuroinhibitory activity of the synthetic peptide with the sequence (SEQ ID NO:1) was determined by the inhibition of the sodium currents by ion channels which were induced by 1 Hz rectangular pulses from […]. […] In each case the mean with the standard deviation is shown.

Experiment [2] concerns the target sodium ion channels of differentiated NH15-CA2 neuroblastoma-x-glioma cells. In words: cell-based or functional assay.

As for `CCN(CC)CC(=O)Nc1c(C)cccc1C` [lidocaine, reference compound], the “concentration of solution with corresponding electrophysiological action on neuronal sodium channels” value in experiment [1] is 50 μM.

As for “Gln-Tyr-Asn-Ala-Asp (QYNAD) [SEQ ID NO:1]”, in experiment [1], the “concentration at saturation of the neuroinhibitory effect” value was determined as 100 µM, the “neuroinhibitory activity compared with lidocaine” value is listed as “significantly higher”, the “neuroinhibitory activity in respect of sodium ion channels (in words)” value is recorded as “blocks their sodium currents” and the “concentration of solution with corresponding electrophysiological action on neuronal sodium channels” value amounted to 10 μM. Moreover, the “peptide-mediated blocking of the ion channel (time course)” value in experiment [1] (NH15-CA2 cells) was “rapid and reversible”. Besides, the IC50 in experiment [1] (NH15-CA2 cells, currents induced by 1 Hz rectangular pulses, seven measurements, read-out: peptide concentration giving half-maximum inhibition of the sodium ion currents) was less than 10 µM.

In the case of “Gln-Tyr-Asn-Asp-Ala (QYNDA) [SEQ ID NO:2]”, the “neuroinhibitory activity in respect of sodium ion channels (in words)” value in experiment [1] is “does not have a neuroinhibitory activity”.

In experiment [2], “synthetic peptide Gln-Tyr-Asn-Ala-Asp (SEQ ID NO: 1)” gave a half-maximum inhibition of the sodium ion currents of less than 10 µM and a saturation of the peptide effect of 100 µM.
